Reference: article PMC12197678, “Cvill6 and Cvill7: Potent and Selective Peptide Blockers of Kv1.2 Ion Channel Isolated from Mexican Scorpion Centruroides villegasi” (Toxins, 2025)
Positions of bridges follow the written chain, without caps; N, C: chain ends. Residues, ends and D or L forms follow the SMILES beside them.

Columns and labels:
hKv1.1 = target: T1, hKv1.1 (Homo sapiens, UniProt Q09470); assay: cell-based; type: cell-based
T1 construct: host or cells: CHO cells, transient transfection (Lipofectamine 2000)
T1 sequence (Q09470 whole entry): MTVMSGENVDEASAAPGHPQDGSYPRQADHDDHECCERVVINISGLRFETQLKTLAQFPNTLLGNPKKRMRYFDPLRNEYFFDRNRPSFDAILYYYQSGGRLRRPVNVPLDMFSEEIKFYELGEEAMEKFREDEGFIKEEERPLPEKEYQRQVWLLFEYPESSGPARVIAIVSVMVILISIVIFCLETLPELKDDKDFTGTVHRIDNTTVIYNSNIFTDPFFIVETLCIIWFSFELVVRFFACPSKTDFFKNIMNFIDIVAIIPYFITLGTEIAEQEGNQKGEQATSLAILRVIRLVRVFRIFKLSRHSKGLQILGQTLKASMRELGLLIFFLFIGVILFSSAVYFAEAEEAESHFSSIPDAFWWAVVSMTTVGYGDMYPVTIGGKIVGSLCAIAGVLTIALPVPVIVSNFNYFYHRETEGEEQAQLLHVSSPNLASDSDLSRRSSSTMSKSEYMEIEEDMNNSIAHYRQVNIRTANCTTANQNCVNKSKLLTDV
Source text: For current recordings, Kv1.1, Kv1.2, and Kv1.5 were transiently expressed in CHO cells while for Kv11.1 a stable HEK293 cell line was used. To record Kv1.3 currents human peripheral T lymphocytes were activated with Phytohemagglutinin A (PHA) to boost Kv1.3 expression and Ca^2+-free intracellular solution to prevent the KCa3.1 channel opening. […] Appropriate voltage protocols were applied to record the K^+ currents from voltage-clamped cells in whole-cell configurations. Toxins were freshly dissolved in the bath solution supplemented with 0.1 mg/mL BSA and applied to the patched cells via a gravity-fed micro-perfusion system with an approximate flow rate of 200 µL/min.
Chinese hamster ovary (CHO) cells (generously provided by Yosef Yarden, Weizmann Institute of Science, Rehovot, Israel) or human embryonic kidney (HEK293) cells were cultured and maintained in Dulbecco’s modified Eagle medium (DMEM, Thermo Fisher Scientific, Waltham, MA, USA) supplemented with 2 mM L-glutamine, 10% fetal bovine serum (FBS), 100 µg/mL streptomycin, and 100 U/mL penicillin-g (Sigma-Aldrich, Budapest, Hungary) following standard culturing conditions [52]. For transient expression of ion channels, CHO cells were transfected using the Lipofectamine 2000 kit (Invitrogen, Waltham, MA, USA) following the manufacturer’s instructions with plasmids encoding specific ion channels, including hKv1.1 (KCNA1 gene), hKv1.2 (KCNA2 gene), and hKv1.5 (KCNA5 gene) in a pCMV6-AC-GFP vector (OriGene Technologies), hKCa2.2 (KCNN2 gene) in a pCDN3 plasmid (for this transfection a GFP containing plasmid was co-transfected, courtesy of Bernard Attali, Tel Aviv University, Tel Aviv, Israel), and hKCa3.1 (KCNN4 gene) in a pEGFP-C1 vector (a kind gift by H. Wulff, University of California, Davis, CA, USA). […] Electrophysiological recordings were typically conducted 24 to 48 h after transfection.
Whole-cell currents were recorded using the patch-clamp technique in voltage-clamp mode, following standard protocols [73]. […] Micropipettes were made from GC150F-7.5 borosilicate capillaries (Harvard Apparatus Co., Holliston, MA, USA) using a Sutter P2000 laser puller with tip resistance generally ranging from 3–6 MΩ in the bath solution. Only recordings with a leak current at the holding potential (Vh) of <10% of the peak current at the test potential were included in the data analysis. All recordings were performed at room temperature (20–25 °C). Control and test solutions were perfused to the cells via a gravity-driven micro-perfusion system and AutoMate Perfusion Pencil Multi-Barrel Manifold Tip (AutoMate Scientific, Berkeley, CA, USA), with an approximate flow rate of 200 µL/min, and the excess amount of bath solution was continuously removed from the recording chamber using vacuum suction.
The duration of depolarization pulses was 15 ms for Kv1.3 and 50 ms for Kv1.1 and Kv1.5. However, for Kv1.2, 15–500 ms-long pulses were used to achieve the saturated peak current due to the variable activation kinetics of this channel [74].

hKv11.1 (hERG1) = assay: Whole-cell patch-clamp, hKv11.1 current in stable HEK293 cells; type: cell-based, human; details: 100 nM; ~3 min
Experimental: Appropriate voltage protocols were applied to record the K^+ currents from voltage-clamped cells in whole-cell configurations. Toxins were freshly dissolved in the bath solution supplemented with 0.1 mg/mL BSA and applied to the patched cells via a gravity-fed micro-perfusion system with an approximate flow rate of 200 µL/min.
HEK 293 cells stably expressing mKCa1.1 1 (BKCa, Kcnma1 gene, generously provided by C. Beeton from Baylor College of Medicine, Houston, TX, USA) or hKv11.1 (hERG1, KCNH2 gene, gifted by H. Wulff from University of California, Davis, CA, USA) were utilized in this study.
Whole-cell currents were recorded using the patch-clamp technique in voltage-clamp mode, following standard protocols [73]. […] Micropipettes were made from GC150F-7.5 borosilicate capillaries (Harvard Apparatus Co., Holliston, MA, USA) using a Sutter P2000 laser puller with tip resistance generally ranging from 3–6 MΩ in the bath solution. Only recordings with a leak current at the holding potential (Vh) of <10% of the peak current at the test potential were included in the data analysis. All recordings were performed at room temperature (20–25 °C). […]

hKCa2.2 (SK2) = assay: Whole-cell patch-clamp, hKCa2.2 current in transfected CHO cells; type: cell-based, human; details: 100 nM; ~3 min
Source text: The scorpion toxins from the α-KTx 2 family also modulate the function of Ca^2+-activated potassium channels, in addition to Kv1 channels. Therefore, we investigated the activity of Cvill6 and Cvill7 toxins on three different types of Ca^2+-activated K^+ channels: (1) hKCa2.2 (SK2), the small-conductance Ca^2+-activated channel; (2) hKCa3.1 (IKCa1, SK4), the intermediate-conductance Ca^2+-activated channels, mainly expressed in T lymphocytes; and (3) mKCa1.1 (BK or MaxiK), the large-conductance voltage- and Ca^2+- activated channel of mice. […] The quantity of native toxins was insufficient to conduct the full dose–response curves at this high concentration range (see above).
Chinese hamster ovary (CHO) cells (generously provided by Yosef Yarden, Weizmann Institute of Science, Rehovot, Israel) or human embryonic kidney (HEK293) cells were cultured and maintained in Dulbecco’s modified Eagle medium (DMEM, Thermo Fisher Scientific, Waltham, MA, USA) supplemented with 2 mM L-glutamine, 10% fetal bovine serum (FBS), 100 µg/mL streptomycin, and 100 U/mL penicillin-g (Sigma-Aldrich, Budapest, Hungary) following standard culturing conditions. […] Cells expressing GFP were identified using a Nikon TE 2000U fluorescence microscope (Nikon, Tokyo, Japan) with bandpass filters set to 455–495 nm for excitation and 515–555 nm for emission. […]

hKCa3.1 (IKCa1, SK4) = target: T2, hKCa3.1 (IKCa1, SK4) (Homo sapiens, UniProt O15554); assay: Whole-cell patch-clamp, hKCa3.1 current in transfected CHO cells; type: cell-based; details: for reversibility of KCa3.1 inhibition / time to steady-state block of KCa3.1 / reduction of KCa3.1 current / inhibition at 0.1 µM / remaining current fraction (RCF, I/I0): 100 nM; for reversibility of KCa3.1 inhibition: then toxin-free solution; for time to steady-state block of KCa3.1: 5–6 consecutive traces; for time to steady-state block of KCa3.1 / remaining current fraction (RCF, I/I0) / time to recovery from KCa3.1 block: n = 5; for reduction of KCa3.1 current: representative record; for inhibition at 0.1 µM / potency estimated from few doses: CHO; for inhibition at 0.1 µM: read-out: inhibition of KCa3.1 current; for potency estimated from few doses / remaining current fraction (RCF, I/I0): KCa3.1; for potency estimated from few doses: estimated from a single concentration (100 nM), bimolecular 1:1 interaction, read-out: estimated IC50; for remaining current fraction (RCF, I/I0): mean ± SEM; for time to recovery from KCa3.1 block: toxin-lacking solution after 100 nM
T2 construct: expressed in transfected cells; host or cells: CHO cells, transient transfection (Lipofectamine 2000); plasmid a gift of H. Wulff
T2 sequence (O15554 whole entry): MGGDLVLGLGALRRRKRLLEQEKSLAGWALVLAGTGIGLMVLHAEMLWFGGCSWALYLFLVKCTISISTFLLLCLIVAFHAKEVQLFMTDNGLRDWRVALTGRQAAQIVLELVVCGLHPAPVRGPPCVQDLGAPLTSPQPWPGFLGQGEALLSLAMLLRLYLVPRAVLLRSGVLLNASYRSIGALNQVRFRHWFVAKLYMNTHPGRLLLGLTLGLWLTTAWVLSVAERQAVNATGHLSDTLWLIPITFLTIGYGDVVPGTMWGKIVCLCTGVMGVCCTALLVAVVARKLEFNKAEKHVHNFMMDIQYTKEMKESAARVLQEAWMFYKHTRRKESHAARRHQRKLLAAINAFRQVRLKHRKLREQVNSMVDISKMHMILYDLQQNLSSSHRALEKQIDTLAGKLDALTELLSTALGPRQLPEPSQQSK
Source text: The scorpion toxins from the α-KTx 2 family also modulate the function of Ca^2+-activated potassium channels, in addition to Kv1 channels. Therefore, we investigated the activity of Cvill6 and Cvill7 toxins on three different types of Ca^2+-activated K^+ channels: (1) hKCa2.2 (SK2), the small-conductance Ca^2+-activated channel; (2) hKCa3.1 (IKCa1, SK4), the intermediate-conductance Ca^2+-activated channels, mainly expressed in T lymphocytes; and (3) mKCa1.1 (BK or MaxiK), the large-conductance voltage- and Ca^2+- activated channel of mice. Appropriate depolarization protocols were applied to record the K^+ current through respective KCa channels as shown in the inset of each panel in Figure 6A–C. […] Cvill6 reduced ~40% of the KCa3.1 current (Figure 6C), where the RCF value was 0.73 ± 0.05 (n = 5) at 100 nM (Figure 6D). On the other hand, Cvill7 inhibited ~25% of the current at the same concentration (Figure 6C), with an RCF value 0.84 ± 0.03 (n = 5) (Figure 6D). The time course of inhibition of KCa3.1 currents at 100 nM of Cvill6 or Cvill7 is shown in Figure 6E and Figure 6F, respectively. The normalized peak currents (see Section 2.4 or Section 5 for details) for individual cells (n = 5) were averaged at each time point and plotted as a function of time. […] The recovery from the block with Cvill6 to the initial peak current occurred in 4–5 consecutive traces (~0.8 min) and in the case of Cvill7 it took only 2–3 consecutive traces (~0.5 min) after perfusing the cell with toxin-lacking solution. […] The quantity of native toxins was insufficient to conduct the full dose–response curves at this high concentration range (see above).
Chinese hamster ovary (CHO) cells (generously provided by Yosef Yarden, Weizmann Institute of Science, Rehovot, Israel) or human embryonic kidney (HEK293) cells were cultured and maintained in Dulbecco’s modified Eagle medium (DMEM, Thermo Fisher Scientific, Waltham, MA, USA) supplemented with 2 mM L-glutamine, 10% fetal bovine serum (FBS), 100 µg/mL streptomycin, and 100 U/mL penicillin-g (Sigma-Aldrich, Budapest, Hungary) following standard culturing conditions. For transient expression of ion channels, CHO cells were transfected using the Lipofectamine 2000 kit (Invitrogen, Waltham, MA, USA) following the manufacturer’s instructions with plasmids encoding specific ion channels, including hKv1.1 (KCNA1 gene), hKv1.2 (KCNA2 gene), and hKv1.5 (KCNA5 gene) in a pCMV6-AC-GFP vector (OriGene Technologies), hKCa2.2 (KCNN2 gene) in a pCDN3 plasmid (for this transfection a GFP containing plasmid was co-transfected, courtesy of Bernard Attali, Tel Aviv University, Tel Aviv, Israel), and hKCa3.1 (KCNN4 gene) in a pEGFP-C1 vector (a kind gift by H. Wulff, University of California, Davis, CA, USA). Cells expressing GFP were identified using a Nikon TE 2000U fluorescence microscope (Nikon, Tokyo, Japan) with bandpass filters set to 455–495 nm for excitation and 515–555 nm for emission. Electrophysiological recordings were typically conducted 24 to 48 h after transfection.
The extracellular solution (bath solution) for both Kv and KCa channels consisted of 145 mM NaCl, 5 mM KCl, 2.5 mM CaCl2, 1 mM MgCl2, 10 mM HEPES, and 5.5 mM glucose, pH 7.35, and osmolarity between 302 and 308 mOsM/L. For positive control solutions containing various concentrations of tetraethylammoniums (TEA^+), Na^+ was substituted with TEA-Cl in equimolar concentration in the bath solution and all other ingredients remained unchanged. To avoid toxin adsorption onto the plastic surfaces of the perfusion system, 0.1 mg/mL of bovine serum albumin (BSA, Sigma-Aldrich, Budapest, Hungary) was also added into all bath solutions prior to the patch-clamp assay. […]

Structure (SMILES) | effect on hKv1.1 current (hKv1.1; 100 nM) | effect on hKv11.1 (hERG1) current (hKv11.1 (hERG1)) | effect on KCa2.2 current (hKCa2.2 (SK2)) | reversibility of KCa3.1 inhibition (hKCa3.1 (IKCa1, SK4)) | time to steady-state block of KCa3.1 (hKCa3.1 (IKCa1, SK4)) | reduction of KCa3.1 current (hKCa3.1 (IKCa1, SK4)) | inhibition at 0.1 µM (hKCa3.1 (IKCa1, SK4)) [%] | potency estimated from few doses (hKCa3.1 (IKCa1, SK4)) [nM] | remaining current fraction (RCF, I/I0) (hKCa3.1 (IKCa1, SK4)) | affinity for KCa3.1 relative to Cvill7 (hKCa3.1 (IKCa1, SK4); estimated IC50 comparison) | time to recovery from KCa3.1 block (hKCa3.1 (IKCa1, SK4)) | reduction of hKv1.1 peak current (hKv1.1; 100 nM, representative record, equilibrium block) | potency estimated from few doses (hKv1.1; CHO, read-out: estimated IC50) [nM] | inhibition at 0.1 µM (hKv1.1; CHO, read-out: inhibition of Kv1.1 current) [%]
CC[C@H](C)[C@H](N)C(=O)N[C@@H](Cc1ccccc1)C(=O)N[C@H](C(=O)N[C@@H](CC(N)=O)C(=O)N[C@H](C(=O)N[C@@H](CCCCN)C(=O)N[C@H]1CSSC[C@@H]2NC(=O)[C@H](CCCCN)NC(=O)CNC(=O)CNC(=O)[C@H](C)NC(=O)[C@H](Cc3c[nH]cn3)NC(=O)[C@H](CCC(N)=O)NC(=O)CNC(=O)[C@H](Cc3ccccc3)NC(=O)[C@H](CCCNC(=N)N)NC(=O)[C@H](CC(=O)O)NC(=O)[C@H](CCCCN)NC(=O)[C@@H]3CSSC[C@@H](C(=O)N[C@@H](Cc4ccc(O)cc4)C(=O)N4CCC[C@H]4C(=O)O)NC(=O)[C@H](CCCCN)NC(=O)[C@H](CSSC[C@H](NC(=O)[C@H](CCC(N)=O)NC(=O)[C@H](CCC(N)=O)NC(=O)[C@@H]4CCCN4C(=O)[C@H](CC(C)C)NC(=O)[C@H](CC(=O)O)NC1=O)C(=O)N[C@@H](CC(C)C)C(=O)N[C@@H](CCCNC(=N)N)C(=O)N1CCC[C@H]1C(=O)N3)NC(=O)[C@H](CCCCN)NC(=O)CNC(=O)[C@H](CC(N)=O)NC(=O)[C@H]([C@@H](C)CC)NC2=O)C(C)C)[C@@H](C)CC [Cvill6] (H-IFINVKCDLPQQCLRPCKDRFGQHAGGKCINGKCKCYP-OH; disulfide 7-29, 13-34, 17-36 (inferred); N-terminus and C-terminus assumed) | no change in current amplitudes | no change in current amplitudes | Neither Cvill6 nor Cvill7 showed any effect | inhibit the KCa3.1 channel reversibly with quick association and dissociation kinetics | ~ 1 min | ~ 40% | ~27 | ~268 | 0.73 ± 0.05 | two-fold higher affinity | ~ 0.8 min | – | – | –
CC[C@H](C)[C@H](NC(=O)[C@H](Cc1ccccc1)NC(=O)[C@@H](N)[C@@H](C)O)C(=O)N[C@@H](CC(N)=O)C(=O)N[C@H](C(=O)N[C@@H](CCCCN)C(=O)N[C@H]1CSSC[C@@H]2NC(=O)[C@H](CCCCN)NC(=O)CNC(=O)CNC(=O)[C@H](C)NC(=O)[C@H](Cc3c[nH]cn3)NC(=O)[C@@H]3CCCN3C(=O)CNC(=O)[C@H](Cc3ccc(O)cc3)NC(=O)[C@H](CC(C)C)NC(=O)[C@H](CC(=O)O)NC(=O)[C@H](CCCCN)NC(=O)[C@@H]3CSSC[C@@H](C(=O)N[C@@H](Cc4ccc(O)cc4)C(=O)N[C@@H](CC(N)=O)C(=O)N[C@@H](CC(N)=O)C(N)=O)NC(=O)[C@H](CCCCN)NC(=O)[C@H](CSSC[C@H](NC(=O)[C@H](CCC(N)=O)NC(=O)[C@H](CCCCN)NC(=O)[C@@H]4CCCN4C(=O)[C@H](CO)NC(=O)[C@H]([C@@H](C)O)NC1=O)C(=O)N[C@@H](CC(C)C)C(=O)N[C@@H](CCCCN)C(=O)N1CCC[C@H]1C(=O)N3)NC(=O)[C@H](CCCCN)NC(=O)CNC(=O)[C@H](CC(N)=O)NC(=O)[C@H](CCSC)NC2=O)C(C)C [Cvill7] (H-TFINVKCTSPKQCLKPCKDLYGPHAGGKCMNGKCKCYNN-NH2; disulfide 7-29, 13-34, 17-36; N-terminus and C-terminus assumed) | – | did not show any effect | Neither Cvill6 nor Cvill7 showed any effect | inhibit the KCa3.1 channel reversibly with quick association and dissociation kinetics | ~ 1 min | ~ 25% | ~16 | ~527 | 0.84 ± 0.03 | – | ~ 0.5 min | ~ 32% | ~192 | ~34
